For one compound, inhibition results are on record in patent publication EP1816121B1, “9-Chloro-15-deoxyprostaglandin derivatives, process for their preparation and their use as medicaments” (Bayer Schering Pharma Aktiengesellschaft, priority 2005, dated 2007).

Assay [1] deals with Human monocyte derived dendritic cells. In words: Inhibition of human monocyte derived dendritic cell cytokine release, IL-12. Particulars: 18 h. The assay is classed as cell-based. The source says: (§1) Following stimulation through the toll-like receptors (TLR) DCs express and release proinflammatory cytokines and chemokines and may induce activation and proliferation of naïve T cells. The binding of an EP2 agonist to the DC EP receptor inhibits TLR4 ligand (LPS) stimulated Interleukin 12 (IL-12) release. […] Therefore an EP2 agonist skews the CD4 T cell differentiation away from the Th- lineage.
IL-12 is a 75 kDa glycoprotein heterodimer (p70) composed of two genetically unrelated subunits linked by a disulfide bond. Enzyme linked immuno sorbant assays (ELISA) based on antibodies specific to IL-12 p70 are commercially available. Standards and samples are pipetted into the wells of a microplate. An antibody specific to human IL-12 is added to the wells. A substrate is added to the wells and color develops in proportion to the amount of IL-12 bound. The intensity of the color is measured.
(§2) Human monocyte derived dendritic cells are isolated from human donors using a Ficoll density gradient and residual erythrocytes removed by selective lysis. CD14 MicroBeads are used for separation of human cells based on the expression of the CD14 antigen. The dendritic cells are cultured at approximately 1.5 x 10^6 cells per ml in RPMI 1640 with fetal bovine serum, 200 ng/ml GM-CSF (Leukine) and 10 ng/ml IL-4. The cells grow-for a period of 3 days and then the media is changed. 10ng/ml LPS is used to activate the cells. 1µM of substance (EP2 agonist) and 1µM of PGE2 are added during the LPS stimulation. Cells are incubated for approximately 18 hr at 37C. IL-12 and II-10 released during activation is measured by ELISA.

Assay [2] has the same test system. In words: Human monocyte derived dendritic cell cytokine release, IL-10. The assay is classed as cell-based. To be noted: 18 h.
Excerpt: as §1
IL-10 initially designated cytokine synthesis inhibitory factor (CSIF), was originally identified as a product of Th-2 clones that suppressed the production of cytokines by Th-1 clones responding to stimulation by antigen in the presence of antigen-presenting cells. IL-10 is a dimer composed of two identical 160 amino acid subunits. Enzyme linked immuno sorbant assays (ELISA) based on antibodies specific to IL-10 are commercially available. Standards and samples are pipetted into the wells of a microplate. An antibody specific to human IL-10 is added to the wells. A substrate is added to the wells and color develops in proportion to the amount of IL-10 bound. The intensity of the color is measured.
as §2

Where [3] appears, read: Donor 1, read-out: % inhibition below untreated, LPS- stimulated control.
[4] abbreviates: Donor 2, read-out: % inhibition below untreated, LPS- stimulated control.
Setting [5] is: Donor 3, read-out: % inhibition below untreated, LPS- stimulated control.

As for `CCCCC[C@H](O)/C=C/[C@H]1[C@H](O)CC(=O)[C@@H]1C/C=C\CCCC(=O)O` [PGE2, prostaglandin E2], the inhibition at 1 µM in assay [1] (setting [3]) came out at 78%; in assay [1] (setting [4]) it was 44%; in assay [1] (setting [5]), 84%; in assay [1] (Donor 4, read-out: % inhibition below untreated, LPS- stimulated control) it was 29%; in assay [2] (setting [3]), 103%; in assay [2] (setting [4]), 134%. Also, in assay [2] (setting [5]), the inhibition at 1 µM turned out to be 107%.

As usually defined, the inhibition is the drop in the measured response relative to a control, in per cent.
